Measured values taken from PMC4457528, “Identification of Novel Small Molecule Inhibitors of Oncogenic RET Kinase” (PLoS ONE, 2015).
Where two headings read alike, the source gives them in different places.

Experiments:
Test in all cases: KinomeScan kinase panel, single concentration 10 µM
Format in all cases: binding
KinomeScan kinase panel [1] = target: T1, KinomeScan kinase panel (Homo sapiens, UniProt P28482); conditions: ERK2, 10 µM; read-out: score (%)
T1 construct: purchased DiscoveRx (KinomeScan)
T1 sequence (P28482 whole entry): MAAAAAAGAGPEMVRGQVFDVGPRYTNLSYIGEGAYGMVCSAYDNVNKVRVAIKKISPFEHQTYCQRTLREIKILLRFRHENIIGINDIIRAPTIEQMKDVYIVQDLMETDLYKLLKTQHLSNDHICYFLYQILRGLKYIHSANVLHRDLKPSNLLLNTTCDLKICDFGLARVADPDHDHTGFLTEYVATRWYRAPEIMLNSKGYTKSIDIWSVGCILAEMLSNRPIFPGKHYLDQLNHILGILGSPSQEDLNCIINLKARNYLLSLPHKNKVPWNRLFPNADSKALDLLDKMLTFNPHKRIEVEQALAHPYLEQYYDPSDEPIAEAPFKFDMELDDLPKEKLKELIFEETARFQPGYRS

KinomeScan kinase panel [2] = target: T2, KinomeScan kinase panel (Homo sapiens, UniProt Q13470); conditions: read-out: score (%)
T2 construct: purchased DiscoveRx (KinomeScan)
T2 sequence (Q13470 1-666): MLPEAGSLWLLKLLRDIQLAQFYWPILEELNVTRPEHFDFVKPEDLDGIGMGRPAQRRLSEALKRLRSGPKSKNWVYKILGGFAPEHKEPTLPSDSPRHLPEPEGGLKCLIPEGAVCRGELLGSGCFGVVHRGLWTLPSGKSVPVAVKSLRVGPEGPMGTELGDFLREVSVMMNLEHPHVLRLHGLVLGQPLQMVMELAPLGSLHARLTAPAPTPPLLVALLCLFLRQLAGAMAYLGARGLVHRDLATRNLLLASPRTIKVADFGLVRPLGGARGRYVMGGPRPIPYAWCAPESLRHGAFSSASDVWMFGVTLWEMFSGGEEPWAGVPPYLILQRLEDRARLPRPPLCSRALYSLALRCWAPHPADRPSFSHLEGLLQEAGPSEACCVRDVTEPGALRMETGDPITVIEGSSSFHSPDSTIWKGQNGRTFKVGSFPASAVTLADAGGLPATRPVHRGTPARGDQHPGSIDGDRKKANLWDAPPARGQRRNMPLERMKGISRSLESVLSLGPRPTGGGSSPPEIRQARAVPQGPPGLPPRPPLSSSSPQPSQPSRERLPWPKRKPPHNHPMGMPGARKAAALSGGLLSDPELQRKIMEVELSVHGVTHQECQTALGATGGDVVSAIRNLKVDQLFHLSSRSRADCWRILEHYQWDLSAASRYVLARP

KinomeScan kinase panel [3] = target: T3, KinomeScan kinase panel (Homo sapiens, UniProt Q9H4B4); conditions: read-out: score (%)
T3 construct: purchased DiscoveRx (KinomeScan)
T3 sequence (Q9H4B4 whole entry): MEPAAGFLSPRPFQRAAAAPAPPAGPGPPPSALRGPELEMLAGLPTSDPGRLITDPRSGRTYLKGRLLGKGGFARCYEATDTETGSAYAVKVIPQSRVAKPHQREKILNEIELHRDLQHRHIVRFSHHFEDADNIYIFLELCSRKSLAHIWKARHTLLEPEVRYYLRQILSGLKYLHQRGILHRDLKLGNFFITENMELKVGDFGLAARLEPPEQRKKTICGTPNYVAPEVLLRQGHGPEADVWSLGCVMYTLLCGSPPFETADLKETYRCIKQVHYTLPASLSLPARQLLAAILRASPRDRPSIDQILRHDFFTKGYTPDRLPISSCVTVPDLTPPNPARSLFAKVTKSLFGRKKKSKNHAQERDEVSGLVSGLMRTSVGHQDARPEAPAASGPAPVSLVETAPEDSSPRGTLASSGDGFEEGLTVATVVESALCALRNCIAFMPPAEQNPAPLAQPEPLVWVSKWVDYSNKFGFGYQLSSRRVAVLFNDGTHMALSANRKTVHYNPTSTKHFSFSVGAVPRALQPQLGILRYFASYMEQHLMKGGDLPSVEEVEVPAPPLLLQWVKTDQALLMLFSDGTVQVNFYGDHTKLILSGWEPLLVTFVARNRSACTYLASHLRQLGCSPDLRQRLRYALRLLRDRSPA

KinomeScan kinase panel [4] = target: T4, KinomeScan kinase panel (Homo sapiens, UniProt P27361); conditions: ERK1, 10 µM; read-out: score (%)
T4 construct: purchased DiscoveRx (KinomeScan)
T4 sequence (P27361 whole entry): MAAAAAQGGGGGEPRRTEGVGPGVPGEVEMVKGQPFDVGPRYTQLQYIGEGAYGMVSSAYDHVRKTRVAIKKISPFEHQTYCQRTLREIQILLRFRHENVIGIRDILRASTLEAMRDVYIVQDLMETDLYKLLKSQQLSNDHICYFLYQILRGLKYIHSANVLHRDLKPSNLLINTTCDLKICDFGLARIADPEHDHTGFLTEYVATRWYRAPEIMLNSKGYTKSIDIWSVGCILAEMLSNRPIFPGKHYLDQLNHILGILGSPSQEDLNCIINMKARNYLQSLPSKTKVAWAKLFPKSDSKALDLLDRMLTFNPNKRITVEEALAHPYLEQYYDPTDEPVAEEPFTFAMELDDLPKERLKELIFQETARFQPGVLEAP

KinomeScan kinase panel [5] = target: T5, KinomeScan kinase panel (Homo sapiens, UniProt P48730); conditions: CSNK1D, 10 µM; read-out: score (%)
T5 construct: purchased DiscoveRx (KinomeScan)

KinomeScan kinase panel [6] = target: T6, KinomeScan kinase panel (Homo sapiens, UniProt Q15349); conditions: 10 µM, read-out: score (%)
T6 construct: purchased DiscoveRx (KinomeScan)
T6 sequence (Q15349 whole entry): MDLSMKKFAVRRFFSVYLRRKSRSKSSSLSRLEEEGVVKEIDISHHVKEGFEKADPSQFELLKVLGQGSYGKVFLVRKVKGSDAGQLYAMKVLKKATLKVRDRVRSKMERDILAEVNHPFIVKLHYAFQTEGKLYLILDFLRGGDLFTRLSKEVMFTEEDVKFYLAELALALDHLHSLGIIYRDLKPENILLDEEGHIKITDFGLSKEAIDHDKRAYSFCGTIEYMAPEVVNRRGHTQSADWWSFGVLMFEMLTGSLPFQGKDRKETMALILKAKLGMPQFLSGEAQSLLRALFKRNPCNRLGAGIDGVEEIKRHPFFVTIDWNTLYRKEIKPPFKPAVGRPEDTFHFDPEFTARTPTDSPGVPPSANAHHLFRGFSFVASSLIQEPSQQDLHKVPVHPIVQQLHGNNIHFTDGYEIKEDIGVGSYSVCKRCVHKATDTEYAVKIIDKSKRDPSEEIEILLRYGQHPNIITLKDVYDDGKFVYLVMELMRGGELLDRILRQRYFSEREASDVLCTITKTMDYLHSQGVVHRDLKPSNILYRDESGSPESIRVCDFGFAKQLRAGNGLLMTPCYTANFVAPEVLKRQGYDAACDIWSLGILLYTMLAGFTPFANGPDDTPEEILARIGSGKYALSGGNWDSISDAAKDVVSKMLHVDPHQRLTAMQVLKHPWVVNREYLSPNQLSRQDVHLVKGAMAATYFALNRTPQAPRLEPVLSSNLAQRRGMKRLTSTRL

KinomeScan kinase panel [7] = target: T7, KinomeScan kinase panel (Homo sapiens, UniProt P07949); conditions: 10 µM, read-out: score (%)
T7 construct: purchased DiscoveRx (KinomeScan)
T7 sequence (P07949 29-1114): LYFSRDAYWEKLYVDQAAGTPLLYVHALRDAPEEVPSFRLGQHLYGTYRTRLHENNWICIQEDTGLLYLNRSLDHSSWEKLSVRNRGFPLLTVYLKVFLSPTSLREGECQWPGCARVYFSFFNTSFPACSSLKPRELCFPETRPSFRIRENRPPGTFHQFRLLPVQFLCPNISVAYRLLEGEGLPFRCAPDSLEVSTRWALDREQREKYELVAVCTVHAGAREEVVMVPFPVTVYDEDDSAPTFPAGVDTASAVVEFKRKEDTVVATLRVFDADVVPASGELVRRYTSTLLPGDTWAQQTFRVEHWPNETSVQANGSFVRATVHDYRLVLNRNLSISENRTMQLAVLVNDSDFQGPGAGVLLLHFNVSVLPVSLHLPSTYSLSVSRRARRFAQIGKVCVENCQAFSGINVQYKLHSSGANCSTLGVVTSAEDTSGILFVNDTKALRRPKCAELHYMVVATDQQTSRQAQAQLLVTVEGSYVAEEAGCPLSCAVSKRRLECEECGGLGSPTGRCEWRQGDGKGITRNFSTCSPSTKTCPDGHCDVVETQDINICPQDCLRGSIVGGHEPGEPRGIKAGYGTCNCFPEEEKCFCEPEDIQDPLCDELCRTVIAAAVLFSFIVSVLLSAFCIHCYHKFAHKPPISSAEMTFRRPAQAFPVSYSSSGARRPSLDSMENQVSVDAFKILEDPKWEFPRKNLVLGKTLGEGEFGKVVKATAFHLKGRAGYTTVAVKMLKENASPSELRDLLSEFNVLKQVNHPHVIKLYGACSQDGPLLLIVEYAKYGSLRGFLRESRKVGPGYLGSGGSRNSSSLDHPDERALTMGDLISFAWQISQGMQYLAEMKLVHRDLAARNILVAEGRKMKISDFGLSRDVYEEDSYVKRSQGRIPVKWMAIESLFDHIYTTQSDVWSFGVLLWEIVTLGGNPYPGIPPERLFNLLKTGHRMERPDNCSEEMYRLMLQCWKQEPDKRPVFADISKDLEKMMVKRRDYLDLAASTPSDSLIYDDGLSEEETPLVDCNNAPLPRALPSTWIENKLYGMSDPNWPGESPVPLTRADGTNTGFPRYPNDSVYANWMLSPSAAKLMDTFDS

KinomeScan kinase panel [8] = target: T8, KinomeScan kinase panel (Homo sapiens, UniProt Q9H3Y6); conditions: 10 µM, read-out: score (%)
T8 construct: purchased DiscoveRx (KinomeScan)
T8 sequence (Q9H3Y6 whole entry): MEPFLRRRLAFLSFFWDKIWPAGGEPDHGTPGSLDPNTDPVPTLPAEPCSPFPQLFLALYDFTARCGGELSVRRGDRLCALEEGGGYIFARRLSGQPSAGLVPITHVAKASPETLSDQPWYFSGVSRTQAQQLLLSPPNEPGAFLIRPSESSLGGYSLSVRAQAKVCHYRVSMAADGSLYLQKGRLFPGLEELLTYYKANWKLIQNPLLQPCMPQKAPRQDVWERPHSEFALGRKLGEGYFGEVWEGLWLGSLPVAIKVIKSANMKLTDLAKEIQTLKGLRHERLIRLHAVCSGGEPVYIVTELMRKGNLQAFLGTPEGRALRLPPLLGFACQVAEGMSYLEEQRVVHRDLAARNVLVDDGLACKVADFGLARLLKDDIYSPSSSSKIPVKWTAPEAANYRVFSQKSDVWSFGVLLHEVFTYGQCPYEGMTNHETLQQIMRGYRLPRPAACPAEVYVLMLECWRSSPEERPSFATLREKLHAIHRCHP

KinomeScan kinase panel [9] = target: T9, KinomeScan kinase panel (Homo sapiens, UniProt Q9UK32); conditions: 10 µM
T9 construct: purchased DiscoveRx (KinomeScan)
T9 sequence (Q9UK32 whole entry): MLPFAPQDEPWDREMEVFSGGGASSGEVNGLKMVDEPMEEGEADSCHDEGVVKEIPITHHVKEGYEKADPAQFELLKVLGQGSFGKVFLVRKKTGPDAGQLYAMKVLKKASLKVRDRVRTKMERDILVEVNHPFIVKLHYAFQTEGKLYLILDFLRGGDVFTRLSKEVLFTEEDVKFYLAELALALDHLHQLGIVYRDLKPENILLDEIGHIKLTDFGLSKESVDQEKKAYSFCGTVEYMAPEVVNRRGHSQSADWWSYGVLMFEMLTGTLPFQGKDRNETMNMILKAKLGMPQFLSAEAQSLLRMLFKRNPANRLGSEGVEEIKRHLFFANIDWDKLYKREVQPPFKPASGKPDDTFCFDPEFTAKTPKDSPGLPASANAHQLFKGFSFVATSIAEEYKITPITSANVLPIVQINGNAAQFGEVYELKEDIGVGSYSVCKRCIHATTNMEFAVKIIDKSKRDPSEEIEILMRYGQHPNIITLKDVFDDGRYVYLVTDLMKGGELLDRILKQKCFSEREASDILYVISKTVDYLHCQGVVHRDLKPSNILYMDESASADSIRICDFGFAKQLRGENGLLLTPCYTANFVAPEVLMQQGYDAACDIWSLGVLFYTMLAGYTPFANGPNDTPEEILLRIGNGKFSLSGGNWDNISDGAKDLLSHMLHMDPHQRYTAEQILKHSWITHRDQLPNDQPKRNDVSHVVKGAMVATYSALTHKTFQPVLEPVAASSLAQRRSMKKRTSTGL

KinomeScan kinase panel [10] = target: T10, KinomeScan kinase panel (Homo sapiens, UniProt P11309); conditions: PIM1, 10 µM; read-out: score (%)
T10 construct: purchased DiscoveRx (KinomeScan)
T10 sequence (P11309 whole entry): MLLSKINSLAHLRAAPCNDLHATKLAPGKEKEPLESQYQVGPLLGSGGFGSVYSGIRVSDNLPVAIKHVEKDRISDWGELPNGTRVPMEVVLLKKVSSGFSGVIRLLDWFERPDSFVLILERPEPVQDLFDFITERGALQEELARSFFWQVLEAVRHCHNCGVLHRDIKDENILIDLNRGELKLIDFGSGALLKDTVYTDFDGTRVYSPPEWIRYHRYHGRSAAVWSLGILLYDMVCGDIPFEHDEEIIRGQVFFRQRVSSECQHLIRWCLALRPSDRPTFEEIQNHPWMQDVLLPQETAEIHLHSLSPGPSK

KinomeScan kinase panel [11] = target: T11, KinomeScan kinase panel (Homo sapiens, UniProt P07333); conditions: CSF1R, 10 µM; read-out: score (%)
T11 construct: purchased DiscoveRx (KinomeScan)

KinomeScan kinase panel [12] = target: T12, KinomeScan kinase panel (Homo sapiens, UniProt Q16512); conditions: PKN1, 10 µM; read-out: score (%)
T12 construct: purchased DiscoveRx (KinomeScan)

KinomeScan kinase panel [13] = target: T13, KinomeScan kinase panel (Homo sapiens, UniProt Q04771); conditions: ACVR1, 10 µM; read-out: score (%)
T13 construct: purchased DiscoveRx (KinomeScan)
T13 sequence (Q04771 21-509): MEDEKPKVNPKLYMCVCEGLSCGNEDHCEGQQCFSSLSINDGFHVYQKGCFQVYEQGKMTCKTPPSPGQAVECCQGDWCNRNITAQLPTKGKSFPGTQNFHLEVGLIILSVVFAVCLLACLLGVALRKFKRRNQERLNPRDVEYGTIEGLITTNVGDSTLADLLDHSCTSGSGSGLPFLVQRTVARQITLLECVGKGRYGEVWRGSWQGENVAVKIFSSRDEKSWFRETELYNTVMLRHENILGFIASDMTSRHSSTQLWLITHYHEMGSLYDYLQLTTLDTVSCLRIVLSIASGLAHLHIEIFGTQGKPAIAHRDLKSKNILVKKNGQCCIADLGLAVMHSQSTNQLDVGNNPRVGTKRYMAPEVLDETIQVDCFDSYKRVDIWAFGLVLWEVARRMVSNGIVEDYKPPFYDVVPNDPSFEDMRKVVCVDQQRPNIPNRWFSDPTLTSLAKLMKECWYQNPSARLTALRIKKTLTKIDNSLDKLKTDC

KinomeScan kinase panel [14] = target: T14, KinomeScan kinase panel (Homo sapiens, UniProt Q6PHR2); conditions: kinase ULK3; 10 µM
T14 construct: purchased DiscoveRx (KinomeScan)
T14 sequence (Q6PHR2 1-472): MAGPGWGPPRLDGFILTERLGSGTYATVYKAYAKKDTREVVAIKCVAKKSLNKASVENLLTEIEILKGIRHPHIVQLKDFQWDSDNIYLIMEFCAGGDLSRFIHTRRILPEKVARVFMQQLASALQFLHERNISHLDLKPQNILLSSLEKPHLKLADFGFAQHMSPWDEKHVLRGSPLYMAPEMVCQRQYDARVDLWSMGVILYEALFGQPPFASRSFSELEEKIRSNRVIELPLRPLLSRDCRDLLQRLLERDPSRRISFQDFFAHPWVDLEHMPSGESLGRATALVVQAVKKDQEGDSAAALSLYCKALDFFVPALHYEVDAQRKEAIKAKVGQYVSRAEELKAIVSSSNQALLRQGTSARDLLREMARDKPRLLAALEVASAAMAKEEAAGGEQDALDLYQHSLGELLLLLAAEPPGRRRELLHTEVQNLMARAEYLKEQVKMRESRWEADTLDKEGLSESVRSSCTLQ

KinomeScan kinase panel [15] = target: T15, KinomeScan kinase panel (Homo sapiens, UniProt P00519, Y253F); conditions: 10 µM, read-out: score (%)
T15 construct: purchased DiscoveRx (KinomeScan)

SMILES | remaining binding at 10 µM (KinomeScan kinase panel [1]) [%] | remaining binding at 10 µM (KinomeScan kinase panel [2]; kinase TNK1, 10 µM) [%] | remaining binding at 10 µM (KinomeScan kinase panel [3]; PLK3, 10 µM) [%] | remaining binding at 10 µM (KinomeScan kinase panel [4]) [%] | remaining binding at 10 µM (KinomeScan kinase panel [5]) [%] | remaining binding at 10 µM (KinomeScan kinase panel [7]; RET) [%] | remaining binding at 10 µM (KinomeScan kinase panel [8]; kinase SRMS) [%] | remaining binding at 10 µM (KinomeScan kinase panel [10]) [%] | remaining binding at 10 µM (KinomeScan kinase panel [11]) [%] | remaining binding at 10 µM (KinomeScan kinase panel [12]) [%] | remaining binding at 10 µM (KinomeScan kinase panel [13]) [%] | score (%) (KinomeScan kinase panel [14]) | remaining binding at 10 µM (KinomeScan kinase panel [15]; ABL1(Y253F)) [%] | also measured
CCN1CCN(Cc2ccc(NC(=O)c3ccc(C)c(NC(=O)c4cncc(-c5cccs5)c4)c3)cc2C(F)(F)F)CC1 [ALW-II-41-27] | > 30 | 7.7 | > 30 | > 30 | 5 | 0.05 | 2.8 | > 30 | 0 | > 30 | > 30 | 0.95 | 0.2 | remaining binding at 10 µM (KinomeScan kinase panel [6]; kinase RPS6KA2(Kin.Dom.1-N-terminal)): > 30%; remaining binding at 10 µM (KinomeScan kinase panel [6]; kinase RPS6KA2(Kin.Dom.2-C-terminal)): > 30%; score (%) (KinomeScan kinase panel [9]; kinase RPS6KA6(Kin.Dom.1-N-terminal)): nb (Hits values higher than 30% were considered negative (no binding: nb)); score (%) (KinomeScan kinase panel [9]; kinase RPS6KA6(Kin.Dom.2-C-terminal)): nb (Hits values higher than 30% were considered negative (no binding: nb))
CCN1CCN(Cc2ccc(NC(=O)c3ccc(C)c(/C=C/c4cnc5[nH]ccc5c4Cl)c3)cc2C(F)(F)F)CC1 [HG-6-63-01, (E)-3-(2-(4-chloro-1H-pyrrolo[2,3-b]pyridin-5-yl)vinyl)-N-(4-((4-ethylpiperazin-1-yl)methyl)-3-(trifluoromethyl)phenyl)-4-methylbenzamide] | > 30 | – | > 30 | > 30 | > 30 | 0 | – | > 30 | 0 | > 30 | > 30 | 23 | 0.1 | remaining binding at 10 µM (KinomeScan kinase panel [2]; TNK1, 10 µM): 0.8%; remaining binding at 10 µM (KinomeScan kinase panel [6]; RPS6KA2(Kin.Dom.1)): 7.4%; remaining binding at 10 µM (KinomeScan kinase panel [6]; RPS6KA2(Kin.Dom.2)): > 30%; remaining binding at 10 µM (KinomeScan kinase panel [8]; SRMS): 23%; score (%) (KinomeScan kinase panel [9]; RPS6KA6(Kin.Dom.1)): nb (Hits values higher than 30% were considered negative (no binding: nb)); score (%) (KinomeScan kinase panel [9]; RPS6KA6(Kin.Dom.2)): nb (Hits values higher than 30% were considered negative (no binding: nb))
CCN1CCN(Cc2ccc(NC(=O)c3ccc(C)c(C#Cc4cccnc4)c3)cc2C(F)(F)F)CC1 [XMD15-44] | > 30 | 0 | – | > 30 | 29 | – | 0 | 84 | 0 | 85 | > 30 | 0.25 | – | remaining binding at 10 µM (KinomeScan kinase panel [3]; kinase PLK3, 10 µM): 90%; remaining binding at 10 µM (KinomeScan kinase panel [6]; kinase RSK3(Kin.Dom.1-N-terminal)): 9.5%; remaining binding at 10 µM (KinomeScan kinase panel [6]; kinase RSK3(Kin.Dom.2-C-terminal)): 30%; remaining binding at 10 µM (KinomeScan kinase panel [7]; kinase RET): 0%; score (%) (KinomeScan kinase panel [9]; kinase RSK4(Kin.Dom.1-N-terminal)): 47%; score (%) (KinomeScan kinase panel [9]; kinase RSK4(Kin.Dom.2-C-terminal)): 6.8%; remaining binding at 10 µM (KinomeScan kinase panel [15]; ABL1(Y253F)-phosphorylated): 0.15%
